In data set [1] the test system is muscle strengths of the quadriceps femoris and the hamstrings. As to the kind of experiment: Promotion of muscle strengthening with no exercise load applied, three months. The class given is in vivo, human. The conditions noted are these: month 3, no exercise load, 80% CO2 ten minutes at least once a week. An excerpt: Thirteen subjects (all males, aged from 27 to 43) participated in the experiment. In each subjects, the absorption aid 4 of carbon dioxide described in Example 5 in Patent Document 7 (Japanese Patent Unexamined Publication No. 2004-517345) was given to one determined leg (hereinafter, referred to as a “treated leg”). The treated leg was covered with an 80 cm-long polypropylene bag type sealing enclosure member equipped with a check valve. Then, carbon dioxide was filled in the member from a carbon dioxide gas cylinder and stood still for ten minutes. The carbon dioxide concentration was set to 80% (800,000 ppm). The treatment was carried out at least once a week for three months. No treatment was given to the other leg (hereinafter, referred to as a “non-treated leg”). Before and three months after the experiment was started, the muscle strengths of the treated leg and the non-treated leg were measured (the muscle strengths of the quadriceps femoris and the hamstrings were measured by using MyoretRZ-450).

Data set [2] relates to muscle strength of the quadriceps femoris and the hamstrings. As to the kind of experiment: Promotion of muscle strengthening by stretching exercise on isometric torque of legs, transdermal carbon dioxide absorption on treated leg. It is filed as in vivo, human. The source says: Eight subjects including two subjects who played sports three times or more a week (hereinafter, referred to as “athlete”) and six subjects who played sports two times or less a week (hereinafter, referred to as “non-athlete”) participated in the experiment. Each subject did warming-up by pedaling a gym bicycle for ten minutes. Next, each subject did a stretching exercise on isometric torque of the quadriceps femoris 300 times or more by using training machine MyoretRZ-450 (Kawasaki Heavy Industries, Ltd.). Thus, an exercise load was applied to the quadriceps femoris. Then, the muscle strength of the quadriceps femoris and the muscle strength of the hamstrings to which an exercise load was not applied were measured by using MyoretRZ-450.
After the training was completed, the carbon dioxide absorption aid 4 described in Example 5 in Patent Document 7 (Japanese Patent Unexamined Publication No. 2004-517345) was applied to one determined leg (hereinafter, referred to as a “treated leg”). The treated leg was covered with an 80 cm-long polypropylene bag type sealing enclosure member equipped with a check valve. Then, the member was filled with carbon dioxide from a carbon dioxide gas cylinder and stood still for ten minutes. The carbon dioxide concentration was set to 80% (800,000 ppm). No treatment was given to the other leg (hereinafter, referred to as a “non-treated leg”). The training was carried out only once, this time.
Each subject allowed the treated leg to absorb carbon dioxide for ten minutes once a day as mentioned above by using the carbon dioxide supplying means for muscle strengthening of the present invention (by using a carbon dioxide external administration device as the carbon dioxide supplying means). Thereafter, the muscle strength of the quadriceps femoris and the muscle strength of the hamstrings were measured by using MyoretRZ-450.
On day 4 and later after the experiment was started, neither absorption of carbon dioxide nor stretching exercise on isometric torque of the quadriceps femoris was carried out. On day 7 after the experiment was started, the muscle strengths of the quadriceps femoris and the hamstrings were measured by using MyoretRZ-450.

The subject of the next data set is rat lower thigh muscle. As to the kind of experiment: Increase in amount of rat muscle with no exercise load applied, three months. It is filed as in vivo, Wister rats. An excerpt:
Nine male Wister rats (5-week old at the time when the experiment was started) were used.
In the CO2 group, the hair was removed from the right and left lower thighs of six rats under anesthesia. Then, the absorption aid 4 of carbon dioxide described in Example 5 in Patent Document 7 (Japanese Patent Unexamined Publication
No. 2004-517345) was applied to only the right lower thigh (hereinafter, referred to as a “treated limb”). Next, the rat lower body was covered with a polyethylene bag type sealing enclosure member provided with a hole through which the left hind limb comes out so that only the right hind limb absorbs carbon dioxide. Then, carbon dioxide was filled in the sealing enclosure member by using a carbon dioxide gas cylinder so as to inflate the sealing enclosure member. In order to always secure a sufficient amount of carbon dioxide in the sealing enclosure member, carbon dioxide was added at any time, so that the sealing enclosure member was filled with carbon dioxide for ten minutes. The carbon dioxide concentration inside the sealing enclosure member was set to 100%. […]
Three months later, the rat body weights were measured and the muscle was collected from the right and left lower thighs. The muscle wet weight of the collected muscle was measured, followed by detecting growth a acceleration indicating proteins of muscle fibers, MyoD and Myogenin (see Atsuko HARA et al., “Expression of myosin heavy chain isoforms, myogenin and MyoD in the course of regeneration of skeletal muscle,” Journal of Health Sciences of Hiroshima University, Vol. 2 (1): 12-18, 2002), and IGF-IR [see Junichi SUZUKI et al., “Effect of endurance training with L-arginine supplementation on expression of IGF-1 receptor in rat skeletal muscles” Research for Winter Sports, (the Proceedings of Research and Education Center for Winter Sports, Hokkaido University of Education), Vol. 8 (1) 1-7, 2005], by Western blotting. The resultant bands were analyzed on the analysis software (NIH-Image) so as to quantify each growth acceleration indicating protein. […]

Another data set concerns grip strength. As to the kind of experiment: Promotion of kaatsu training effect, grip strength. The class given is in vivo, human. How it is done:
Two subjects participated in the experiment. The experiment was carried out according to Abe T. et al. (2006) Electromyographic responses of arm and chest muscle during bench press exercise with and without KAATSU. Int. J. Kaatsu Training Res. 2:15-18. The grip strengths of both hands of each subject were measured before the experiment was started. Next, the absorption aid 4 of carbon dioxide described in Example 5 in Patent Document 7 (Japanese Patent Unexamined Publication No. 2004-517345) was applied to the entire left arm of each subject, and the left arm was covered with an 80 cm-long polypropylene bag type sealing enclosure member equipped with a check valve. A cuff of blood pressure manometer was worn on the upper arm with the sealing enclosure member applied. Firstly, the upper arm was pressurized with a cuff pressure of 50 mmHg for 30 seconds. Next, the pressure was released once for 10 seconds, and then the upper arm was pressurized while gradually increasing the cuff pressure to 70 mmHg. When the cuff pressure reached 70 mmHg, the pressure was fixed. Then, carbon dioxide was filled in the sealing enclosure member from a carbon dioxide gas cylinder so as to inflate the sealing enclosure member. […]
Three days after the experiment, the grip strength of both hands of each subject was measured.

The mark [3] stands for this setting: day 7, non-athletes, pre-ex defined as 100%.
Setting [4] is: 100% CO2 ten minutes twice a week.

As for `O=C=O` [carbon dioxide], the “muscle strengthening of the quadriceps femoris in the treated leg as compared with the non-treated leg” value in data set [1] (P=1%) was “about 15%”. In data set [1] (P=5%), the “muscle strengthening of the hamstrings in the treated leg as compared with the non-treated leg” value was “about 15%”. Moreover, in data set [2] (after exercise load, 80% CO2, ten minutes, treated leg), the “blood pressure and heart rate of the subjects during the absorption of carbon dioxide” value is listed as “did not change”. In addition, in data set [2] (day 7, all subjects, pre-ex defined as 100%, CO2 absorption stopped from day 4), the “muscle strengthening of the quadriceps femoris in the treated leg” value is given as 20%. In addition, in data set [2] (day 7, all subjects, pre-ex defined as 100%, significant at P=5%), the “muscle strengthening of the hamstrings (no exercise load) in the treated leg” value is on record as “about 15%”. Further, in data set [2] (setting [3]), the “muscle strengthening of the hamstrings (no exercise load) in the treated leg, non-athletes” value is recorded as “about 20%” and the “muscle strengthening of the quadriceps femoris in the treated leg, non-athletes” value is “about 30%”. For the same molecule, in data set [2] (days 2 to 4 of the experiment, CO2 ten minutes once a day), the “muscle strengthening of the quadriceps femoris, treated leg compared with non-treated leg” value is “promoted”. The “recovery of the muscle strength of the quadriceps femoris, treated leg versus non-treated leg” value in data set [2] (post-CO2, day of exercise load, 80% CO2, ten minutes) was “faster”. Also, in the data set on rat lower thigh muscle (setting [4]), the “muscle wet weight per body weight, CO2 group as compared with CONTROL group” value is “increase” and the “muscle wet weight, treated leg as compared with non-treated leg in the CO2 group” value was “remarkable increase”. The “amount of growth acceleration indicating protein (MyoD, Myogenin, IGF-IR) extracted from the muscle, CO2 group versus CONTROL group” value in the data set with rat lower thigh muscle (Western blotting) was “increased”. In addition, the “muscle strengthening rate (grip strength) compared with only pressurizing” value in the data set with grip strength (day 3 after kaatsu training, treated arm versus non-treated arm) was “two-times”. For the same molecule, in the data set on grip strength (left hand with carbon dioxide absorption versus only pressurizing and exercise), the “muscle pain and fatigue accompanying kaatsu training” value is “reduced”.

Source of the values: US20120093946A1, “USE OF CARBON DIOXIDE SUPPLYING MEANS FOR MUSCLE STRENGTHENING AND METHOD OF INCREASING CATTLE MEAT THEREBY” (priority 2007, published 2012).
